The results in this text go back to PMC8005870, “Membrane Lipid Requirements of the Lysine Transporter Lyp1 from Saccharomyces cerevisiae” (Journal of molecular biology, 2020).

The assay has as its target T1, Lyp1 (Lyp1-GFP) (Saccharomyces cerevisiae, UniProt P32487).
T1 construct: full-length Lyp1 with C-terminal TEV-GFP-His10 kept, expressed in Pichia pastoris SMD1163, DDM-solubilised, purified by IMAC and FSEC, reconstituted in proteoliposomes
T1 sequence (P32487 1-611): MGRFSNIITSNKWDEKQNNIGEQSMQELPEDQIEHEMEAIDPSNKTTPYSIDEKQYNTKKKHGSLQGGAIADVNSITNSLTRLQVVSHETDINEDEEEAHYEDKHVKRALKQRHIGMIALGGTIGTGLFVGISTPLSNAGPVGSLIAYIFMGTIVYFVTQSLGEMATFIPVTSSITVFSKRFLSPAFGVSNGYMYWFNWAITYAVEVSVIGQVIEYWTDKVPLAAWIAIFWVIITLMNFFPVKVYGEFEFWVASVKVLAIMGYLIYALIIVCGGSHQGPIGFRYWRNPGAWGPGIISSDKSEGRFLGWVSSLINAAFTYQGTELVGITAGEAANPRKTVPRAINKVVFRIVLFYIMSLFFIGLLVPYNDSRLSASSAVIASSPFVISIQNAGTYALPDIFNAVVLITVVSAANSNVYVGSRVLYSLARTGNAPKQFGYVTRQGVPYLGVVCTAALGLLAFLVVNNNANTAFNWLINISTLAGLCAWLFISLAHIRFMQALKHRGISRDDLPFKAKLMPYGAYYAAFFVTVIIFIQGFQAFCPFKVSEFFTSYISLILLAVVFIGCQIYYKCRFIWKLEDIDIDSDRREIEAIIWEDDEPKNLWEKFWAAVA
Put plainly: lysine transport turnover versus mol% lipid in proteoliposomes. Type of assay: biochemical. Conditions: proton motive force about -160 mV (valinomycin K+ diffusion potential plus acetate gradient), pH 6.0; defined lipid vesicles; POPS titrated in POPS/POPE/ergosterol vesicles; sigmoidal, cooperative lip.

In the case of `CCCCCCCC/C=C\CCCCCCCC(=O)O[C@H](COC(=O)CCCCCCCCCCCCCCC)COP(=O)(O)OC[C@H](N)C(=O)O` [POPS, 1-palmitoyl-2-oleoyl-sn-glycero-3-phosphoserine], the “lysine transport turnover versus mol% lipid in proteoliposomes” value is “We found a sigmoidal relationship between Lyp1 activity and POPS concentration”.
